“Also recorded” adds a separate entry of the source. Bridge positions count the residues as written; N and C are the ends. Ends that are not written are not given here. Peptide text beside a SMILES is read from it.
Legend:
[1] = Hemodynamic effects in rats without prior Lovenox
Description: Rats were sedated, and catheters were inserted into the femoral vein and femoral artery. The femoral artery catheter was hooked up to the computerized monitoring system, and injections were made through the femoral vein. Peptides were injected into rats without prior injection of Lovenox. Two or more rats (300-350 grams) were treated with 2 mg protamine or peptide.
At the times indicated in the figures, the following actions were taken: administration of saline to insure that the animal and intubations were stable; administration of test peptide or protamine alone; then administration of protamine.

[2] = Hemodynamic effects in rats after administration of the LMWH Lovenox; settings: in the presence of LMWH Lovenox
Description: Next, experiments were performed in which the animals were treated with the peptides after the administration of the LMWH Lovenox®, as would happen in the clinical situation, because binding of peptides to LMWH would be expected to reduce the effects of the peptides on hemodynamic function.

[3] = tested on: Anti-Factor Xa Activity of the Non-Heparin Glycosaminoglycan Orgaran ®; test: Anti-Factor Xa assay: neutralization of Orgaran in citrate or plasma in vitro; assay type: biochemical, human
Description: The ability of peptides such as (ARKKAAKA)3VLVLVLVL (SEQ ID NO:5) to neutralize the anti-Factor Xa activity of UFH and LMWH in vitro was tested using the Stachrom Heparin kit (Diagnostica Stago), a standard hematology laboratory assay used to measure the anti-Factor Xa activity of heparin. The assay was performed using the low molecular weight heparin enoxaparin sodium (Lovenox®, Aventis Pharmaceuticals, Inc.), unfractionated heparin (UFH), or the non-heparin glycosaminoglycan danaparoid sodium (Orgaran®, Organon Inc., West Orange, N.J.) in 0.32% citrate or in plasma anticoagulated with 0.32% citrate. Enoxaparin is commonly used clinically as a low molecular weight heparin (LMWH). Danaparoid is commonly used clinically as a non-heparin glycosaminoglycan anticoagulant. Currently, the only FDA approved drug to target UFH is protamine, which is not effective in vivo against LMWH or a non-heparin glycosaminoglycan such as danaparoid. Buffer and ATIII are added to form the heparin/ATIII complex, peptide is added, then Factor Xa, reporter dye substrate for Factor Xa activity, and stop solution, and the dye concentration is read at 405 nm. The absorbance of the dye increases with increasing Factor Xa activity, and thus is inversely proportional to the heparin (anti-Factor Xa activity) concentration. Peptides were tested in plasma obtained from three volunteers (A, B, and C). Platelet function inhibitors PG12 and theophylline were added to the blood immediately upon collection. […]

[4] = tested on: anti-Factor Xa activity of Lovenox®; test: In vivo neutralization of the LMWH Lovenox in rats (anti-Factor Xa assay of plasma)
Description: Experiments were performed to test the ability of heparin-binding peptides of the invention to neutralize low molecular weight heparins which are used clinically, such as Lovenox®. To this end, rats were cannulated in the jugular and femoral veins. Lovenox® was injected through the jugular vein, and three minutes later the peptide was injected via the jugular vein. The peptides tested included (ARKKAAKA)4 (SEQ ID NO:31), C(ARKKAAKA)4C (SEQ ID NO:34), (ARKKAAKA)3ARKKCAKA (SEQ ID NO:33), and (ARKKAAKA)3VLVLVLVL (SEQ ID NO:5). Blood was collected from the femoral vein. 0.1 ml was collected at each time point. Plasma was prepared from each tube, and the anti-Factor Xa assay was performed.
Results. The dose response of each peptide from 2 mg/300 gm to 0.5 mg/300 gm was tested and a representative dose (1.0 mg) is shown in FIG. 4. […] The absorbance is inversely proportional to the heparin concentration. There is no heparin present when A405=0.7, and about 1 U/ml when A405=0.4. The events at the arrows are indicated in the box insert.

Row | Molecule | Orgaran Neutralized ([3]; 1 μg/ml Peptide, A Plasma) | Orgaran Neutralized ([3]; 1 μg/ml Peptide, B Plasma) | Orgaran Neutralized ([3]; 1 μg/ml Peptide, C Plasma) | Orgaran Neutralized ([3]; 1 μg/ml Peptide, Citrate) | Orgaran Neutralized ([3]; 6 μg/ml Peptide, A Plasma) | Orgaran Neutralized ([3]; 6 μg/ml Peptide, B Plasma) | Orgaran Neutralized ([3]; 6 μg/ml Peptide, C Plasma) | Orgaran Neutralized ([3]; 6 μg/ml Peptide, Citrate) | Orgaran Neutralized ([3]; 12 μg/ml Peptide, A Plasma) | Orgaran Neutralized ([3]; 12 μg/ml Peptide, B Plasma) | Orgaran Neutralized ([3]; 12 μg/ml Peptide, C Plasma) | Orgaran Neutralized ([3]; 12 μg/ml Peptide, Citrate) | Orgaran Neutralized ([3]; 60 μg/ml Peptide, A Plasma) | Orgaran Neutralized ([3]; 60 μg/ml Peptide, B Plasma) | Orgaran Neutralized ([3]; 60 μg/ml Peptide, C Plasma) | Orgaran Neutralized ([3]; 60 μg/ml Peptide, Citrate) | Orgaran Neutralized ([3]; 120 μg/ml Peptide, A Plasma) | Orgaran Neutralized ([3]; 120 μg/ml Peptide, B Plasma) | Orgaran Neutralized ([3]; 120 μg/ml Peptide, C Plasma) | Orgaran Neutralized ([3]; 120 μg/ml Peptide, Citrate) | further results
1 | C[C@@H]1NC(=O)[C@H](C)NC(=O)[C@H](CCCCN)NC(=O)[C@H](CCCCN)NC(=O)[C@H](CCCNC(=N)N)NC(=O)[C@H](C)NC(=O)[C@H](C)NC(=O)[C@H](CCCCN)NC(=O)[C@H](C)NC(=O)[C@H](C)NC(=O)[C@H](CCCCN)NC(=O)[C@H](CCCCN)NC(=O)[C@H](CCCNC(=N)N)NC(=O)[C@H](C)NC(=O)[C@@H](N)CSSC[C@@H](C(=O)O)NC(=O)[C@H](C)NC(=O)[C@H](CCCCN)NC(=O)[C@H](C)NC(=O)[C@H](C)NC(=O)[C@H](CCCCN)NC(=O)[C@H](CCCCN)NC(=O)[C@H](CCCNC(=N)N)NC(=O)[C@H](C)NC(=O)[C@H](C)NC(=O)[C@H](CCCCN)NC(=O)[C@H](C)NC(=O)[C@H](C)NC(=O)[C@H](CCCCN)NC(=O)[C@H](CCCCN)NC(=O)[C@H](CCCNC(=N)N)NC(=O)[C@H](C)NC(=O)[C@H](C)NC(=O)[C@H](CCCCN)NC1=O [C(ARKKAAKA)4C, cyclized C(ARKKAAKA)4C] (H-CARKKAAKAARKKAAKAARKKAAKAARKKAAKAC-OH; disulfide 1-34) | 0.016 ± 0.012 U/ml | 0.038 ± 0.036 U/ml | 0.008 ± 0.005 U/ml | 0.072 ± 0.052 U/ml | 0.074 ± 0.049 U/ml | 0.027 ± 0.016 U/ml | 0.030 ± 0.009 U/ml | 0.099 ± 0.062 U/ml | 0.050 ± 0.031 U/ml | 0.082 ± 0.029 U/ml | 0.063 ± 0.025 U/ml | 0.180 ± 0.023 U/ml | 0.287 ± 0.033 U/ml | 0.282 ± 0.020 U/ml | 0.250 ± 0.030 U/ml | 0.319 ± 0.016 U/ml | 0.389 ± 0.118 U/ml | 0.374 ± 0.062 U/ml | 0.335 ± 0.012 U/ml | 0.340 ± 0.010 U/ml | effect on blood pressure ([1]; 2 mg per rat, no Lovenox): did not cause a change in blood pressure; effect on blood pressure and heart rate / toxicity [2]: no, or minimal, adverse effects on blood pressure or heart rate; also recorded: not toxic; effect on blood pressure and heart rate / toxicity ([2]; listed as C(ARKKAAKA)4C-cyclized): All rats tested showed no response
2 | ARKKAAKAAAAAAAAAAAAAAAAAARKKAAKA [ARKKAAKA(A16)ARKKAAKA, reference compound] |  |  |  |  |  |  |  |  |  |  |  |  |  |  |  |  |  |  |  |  | effect on blood pressure ([1]; 2 mg per rat, no Lovenox): did not affect blood pressure
3 | ARKKAAKAARKKAAKAARKKAAKAARKKAAKA [(ARKKAAKA)4] | 0.026 ± 0.021 U/ml | 0.025 ± 0.009 U/ml | 0.020 ± 0.012 U/ml | 0.021 ± 0.022 U/ml | 0.061 ± 0.006 U/ml | 0.057 ± 0.022 U/ml | 0.074 ± 0.056 U/ml | 0.172 ± 0.028 U/ml | 0.082 ± 0.012 U/ml | 0.110 ± 0.021 U/ml | 0.116 ± 0.021 U/ml | 0.178 ± 0.021 U/ml | 0.211 ± 0.029 U/ml | 0.192 ± 0.009 U/ml | 0.182 ± 0.006 U/ml | 0.298 ± 0.044 U/ml | 0.286 ± 0.040 U/ml | 0.302 ± 0.012 U/ml | 0.299 ± 0.024 U/ml | 0.366 ± 0.019 U/ml | time to nadir of blood pressure ([1]; 2 mg per rat, no Lovenox): 2 min; effect on blood pressure and heart rate / toxicity [2]: no significant effect on blood pressure and heart rate; also recorded: All four rats tested showed no response
4 | ARKKAAKAARKKAAKAARKKAAKAVLVLVLVL [(ARKKAAKA)3VLVLVLVL] | 0.028 ± 0.016 U/ml | 0.026 ± 0.011 U/ml | 0.035 ± 0.010 U/ml | 0.078 ± 0.031 U/ml | 0.050 ± 0.026 U/ml | 0.049 ± 0.021 U/ml | 0.075 ± 0.005 U/ml | 0.114 ± 0.007 U/ml | 0.109 ± 0.019 U/ml | 0.083 ± 0.016 U/ml | 0.114 ± 0.010 U/ml | 0.227 ± 0.017 U/ml | 0.281 ± 0.036 U/ml | 0.258 ± 0.013 U/ml | 0.248 ± 0.020 U/ml | 0.380 ± 0.021 U/ml | 0.366 ± 0.010 U/ml | 0.320 ± 0.010 U/ml | 0.296 ± 0.011 U/ml | 0.345 ± 0.032 U/ml | effect on blood pressure ([1]; 2 mg per rat, no Lovenox): In most rats no drop in blood pressure was seen; duration of transient blood pressure drop ([1]; in one rat): 1 to 2 min; effect on blood pressure and heart rate / toxicity [2]: no, or minimal, adverse effects on blood pressure or heart rate; rank in in vivo neutralization of Lovenox [4]: most effective at the lowest dose
5 | Protamine [reference compound] | 0.027 ± 0.004 U/ml | 0.021 ± 0.007 U/ml | 0.017 ± 0.006 U/ml | 0.030 ± 0.015 U/ml | 0.050 ± 0.025 U/ml | 0.040 ± 0.018 U/ml | 0.034 ± 0.021 U/ml | 0.093 ± 0.046 U/ml | 0.016 ± 0.013 U/ml | 0.065 ± 0.014 U/ml | 0.043 ± 0.018 U/ml | 0.308 ± 0.017 U/ml | 0.140 ± 0.021 U/ml | 0.241 ± 0.032 U/ml | 0.234 ± 0.025 U/ml | 0.322 ± 0.038 U/ml | 0.340 ± 0.021 U/ml | 0.364 ± 0.013 U/ml | 0.318 ± 0.019 U/ml | 0.136 ± 0.034 U/ml | reduction/drop of blood pressure ([1]; 2 mg per rat (300-350 grams), no Lovenox): 25-35 mm Hg; onset of blood pressure reduction ([1]; 2 mg per rat, no Lovenox): within less than a minute; time to nadir of blood pressure ([1]; 2 mg per rat, no Lovenox): about 4.5 minutes; time to recovery/reversal of blood pressure ([1]; 2 mg per rat, no Lovenox): 10 to 12 min; blood pressure drop [2]: ≥ 30 mm Hg; duration of blood pressure drop [2]: 10 min; heart rate nadir [2]: about 80 % of normal; rats with blood pressure drop out of rats tested [2]: 10 out of 15
